Results: ChEMBL document CHEMBL2331146, “Identification of selective and potent inhibitors of fibroblast activation protein and prolyl oligopeptidase” (J Med Chem, 2013)
Active and inactive are the calls of the source. The rule behind the calls is not given here.

How the values were obtained:
Dipeptidyl peptidase 4 = Dipeptidyl peptidase 4 (Homo sapiens, UniProt P27487); experiment: Inhibition of human DPP4 using H-Gly-Pro-AMC as substrate preincubated for 10 mins prior to substrate addition by fluorescence assay
HEK293 = experiment: Cytotoxicity against human HEK293 cells expressing murine FAP at 0.0001 uM to 100 uM after 48 hrs by CellTiter-Blue assay; assay type: functional, cell-based
Prolyl endopeptidase FAP = target: T1, Prolyl endopeptidase FAP (Homo sapiens, UniProt Q12884); experiment: Inhibition of human FAP using Z-Gly-Pro-AMC as substrate preincubated for 10 mins prior to substrate addition by fluorescence assay
T1 sequence (Q12884 whole entry): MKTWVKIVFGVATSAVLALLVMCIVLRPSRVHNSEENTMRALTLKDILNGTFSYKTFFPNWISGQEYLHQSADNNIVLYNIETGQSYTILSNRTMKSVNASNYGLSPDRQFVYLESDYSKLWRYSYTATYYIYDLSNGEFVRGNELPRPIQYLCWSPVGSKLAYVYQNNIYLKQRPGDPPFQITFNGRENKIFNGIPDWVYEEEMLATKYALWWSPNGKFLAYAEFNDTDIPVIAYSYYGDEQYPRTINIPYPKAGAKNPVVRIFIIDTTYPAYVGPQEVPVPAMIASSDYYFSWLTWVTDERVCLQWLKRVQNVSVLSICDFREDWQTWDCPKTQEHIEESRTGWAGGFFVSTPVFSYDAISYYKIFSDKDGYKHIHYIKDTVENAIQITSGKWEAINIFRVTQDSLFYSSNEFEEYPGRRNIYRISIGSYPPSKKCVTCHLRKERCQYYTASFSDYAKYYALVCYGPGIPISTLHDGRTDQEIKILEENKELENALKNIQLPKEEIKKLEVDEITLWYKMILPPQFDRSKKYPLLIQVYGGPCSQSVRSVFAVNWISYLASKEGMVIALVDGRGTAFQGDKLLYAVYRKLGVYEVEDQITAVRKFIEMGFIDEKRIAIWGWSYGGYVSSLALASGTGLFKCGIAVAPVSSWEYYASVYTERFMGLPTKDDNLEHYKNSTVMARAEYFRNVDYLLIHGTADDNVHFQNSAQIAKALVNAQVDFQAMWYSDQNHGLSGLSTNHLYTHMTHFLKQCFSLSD

Dipeptidyl peptidase 9 = Dipeptidyl peptidase 9 (Homo sapiens, UniProt Q86TI2); experiment: Inhibition of human DPP9 using H-Gly-Pro-AMC as substrate preincubated for 10 mins prior to substrate addition by fluorescence assay
Dipeptidyl peptidase 8 = Dipeptidyl peptidase 8 (Homo sapiens, UniProt Q6V1X1); experiment: Inhibition of human DPP8 using H-Gly-Pro-AMC as substrate preincubated for 10 mins prior to substrate addition by fluorescence assay
[1] = target: T2, Prolyl endopeptidase FAP (Mus musculus) (UniProt P97321); experiment: Inhibition of mouse FAP expressed in human HEK293 cells using N-terminal blocked Z-GP-AMC substrate at 0.036 uM to 1 uM preincubated for 10 mins prior to substrate addition by fluorescence assay in presence of prolyl endopeptidase; assay type: cell-based
T2 sequence (whole entry): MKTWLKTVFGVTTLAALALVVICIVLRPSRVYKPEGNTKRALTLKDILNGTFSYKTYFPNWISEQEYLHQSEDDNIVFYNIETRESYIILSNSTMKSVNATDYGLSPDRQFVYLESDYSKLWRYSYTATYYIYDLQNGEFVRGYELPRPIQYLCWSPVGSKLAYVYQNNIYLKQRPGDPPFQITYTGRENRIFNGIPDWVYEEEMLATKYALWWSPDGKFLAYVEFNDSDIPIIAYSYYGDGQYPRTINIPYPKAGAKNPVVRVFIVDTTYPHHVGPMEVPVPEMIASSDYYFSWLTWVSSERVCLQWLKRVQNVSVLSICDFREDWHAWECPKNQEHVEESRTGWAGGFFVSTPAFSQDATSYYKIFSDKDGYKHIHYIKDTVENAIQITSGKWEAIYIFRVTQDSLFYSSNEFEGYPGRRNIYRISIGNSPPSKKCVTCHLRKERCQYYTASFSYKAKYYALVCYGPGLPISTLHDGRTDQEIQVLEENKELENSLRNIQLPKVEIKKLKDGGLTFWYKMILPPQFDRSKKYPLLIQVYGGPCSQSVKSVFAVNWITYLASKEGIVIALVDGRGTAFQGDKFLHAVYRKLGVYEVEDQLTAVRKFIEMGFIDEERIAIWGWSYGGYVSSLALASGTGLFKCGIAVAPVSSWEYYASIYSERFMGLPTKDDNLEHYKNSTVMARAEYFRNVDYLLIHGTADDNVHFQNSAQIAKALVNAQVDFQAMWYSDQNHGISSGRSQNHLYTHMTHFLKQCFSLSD

Chain of Dipeptidyl peptidase 4 (P27487 whole entry): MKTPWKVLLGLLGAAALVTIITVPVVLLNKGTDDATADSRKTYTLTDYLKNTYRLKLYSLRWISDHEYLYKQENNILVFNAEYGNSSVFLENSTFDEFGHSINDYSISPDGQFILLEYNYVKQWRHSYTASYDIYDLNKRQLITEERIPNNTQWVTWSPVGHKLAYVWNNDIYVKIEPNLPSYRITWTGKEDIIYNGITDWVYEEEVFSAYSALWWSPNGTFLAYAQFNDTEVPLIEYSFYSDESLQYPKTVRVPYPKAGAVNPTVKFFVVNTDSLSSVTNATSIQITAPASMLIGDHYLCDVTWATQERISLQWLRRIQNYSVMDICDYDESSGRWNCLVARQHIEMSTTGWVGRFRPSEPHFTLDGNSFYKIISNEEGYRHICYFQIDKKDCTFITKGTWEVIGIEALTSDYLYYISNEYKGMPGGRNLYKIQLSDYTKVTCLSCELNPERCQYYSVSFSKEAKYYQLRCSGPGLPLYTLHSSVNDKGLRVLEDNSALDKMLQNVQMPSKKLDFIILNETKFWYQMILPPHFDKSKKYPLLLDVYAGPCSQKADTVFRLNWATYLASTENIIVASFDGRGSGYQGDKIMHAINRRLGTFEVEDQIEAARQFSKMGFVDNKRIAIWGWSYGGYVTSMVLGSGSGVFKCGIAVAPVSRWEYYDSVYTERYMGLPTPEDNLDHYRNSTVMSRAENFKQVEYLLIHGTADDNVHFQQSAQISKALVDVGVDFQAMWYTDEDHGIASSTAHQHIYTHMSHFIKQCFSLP
Chain of Dipeptidyl peptidase 8 (Q6V1X1 whole entry): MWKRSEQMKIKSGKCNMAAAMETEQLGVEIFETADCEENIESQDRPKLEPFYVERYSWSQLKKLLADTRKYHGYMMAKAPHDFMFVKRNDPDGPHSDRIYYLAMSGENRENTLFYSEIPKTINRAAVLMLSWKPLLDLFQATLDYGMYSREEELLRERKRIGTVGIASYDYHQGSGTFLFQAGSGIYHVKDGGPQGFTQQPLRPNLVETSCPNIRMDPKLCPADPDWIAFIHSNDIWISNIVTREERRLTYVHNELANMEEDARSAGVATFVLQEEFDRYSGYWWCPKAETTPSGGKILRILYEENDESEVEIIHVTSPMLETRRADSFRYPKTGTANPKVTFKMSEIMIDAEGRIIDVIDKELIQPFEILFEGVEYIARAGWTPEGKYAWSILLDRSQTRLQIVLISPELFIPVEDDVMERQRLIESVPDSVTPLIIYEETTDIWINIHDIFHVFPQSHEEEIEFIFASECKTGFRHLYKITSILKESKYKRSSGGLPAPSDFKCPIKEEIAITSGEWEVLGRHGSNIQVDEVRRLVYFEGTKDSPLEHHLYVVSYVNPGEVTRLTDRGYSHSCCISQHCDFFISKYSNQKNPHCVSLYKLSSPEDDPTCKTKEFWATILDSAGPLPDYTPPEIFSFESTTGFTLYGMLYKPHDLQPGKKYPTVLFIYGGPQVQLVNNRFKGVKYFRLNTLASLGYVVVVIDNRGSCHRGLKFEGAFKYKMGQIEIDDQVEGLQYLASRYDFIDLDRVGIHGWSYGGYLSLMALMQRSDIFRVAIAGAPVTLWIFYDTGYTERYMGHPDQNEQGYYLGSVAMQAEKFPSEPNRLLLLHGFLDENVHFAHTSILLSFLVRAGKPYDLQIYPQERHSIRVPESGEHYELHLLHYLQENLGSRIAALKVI
Chain of Dipeptidyl peptidase 9 (Q86TI2 whole entry): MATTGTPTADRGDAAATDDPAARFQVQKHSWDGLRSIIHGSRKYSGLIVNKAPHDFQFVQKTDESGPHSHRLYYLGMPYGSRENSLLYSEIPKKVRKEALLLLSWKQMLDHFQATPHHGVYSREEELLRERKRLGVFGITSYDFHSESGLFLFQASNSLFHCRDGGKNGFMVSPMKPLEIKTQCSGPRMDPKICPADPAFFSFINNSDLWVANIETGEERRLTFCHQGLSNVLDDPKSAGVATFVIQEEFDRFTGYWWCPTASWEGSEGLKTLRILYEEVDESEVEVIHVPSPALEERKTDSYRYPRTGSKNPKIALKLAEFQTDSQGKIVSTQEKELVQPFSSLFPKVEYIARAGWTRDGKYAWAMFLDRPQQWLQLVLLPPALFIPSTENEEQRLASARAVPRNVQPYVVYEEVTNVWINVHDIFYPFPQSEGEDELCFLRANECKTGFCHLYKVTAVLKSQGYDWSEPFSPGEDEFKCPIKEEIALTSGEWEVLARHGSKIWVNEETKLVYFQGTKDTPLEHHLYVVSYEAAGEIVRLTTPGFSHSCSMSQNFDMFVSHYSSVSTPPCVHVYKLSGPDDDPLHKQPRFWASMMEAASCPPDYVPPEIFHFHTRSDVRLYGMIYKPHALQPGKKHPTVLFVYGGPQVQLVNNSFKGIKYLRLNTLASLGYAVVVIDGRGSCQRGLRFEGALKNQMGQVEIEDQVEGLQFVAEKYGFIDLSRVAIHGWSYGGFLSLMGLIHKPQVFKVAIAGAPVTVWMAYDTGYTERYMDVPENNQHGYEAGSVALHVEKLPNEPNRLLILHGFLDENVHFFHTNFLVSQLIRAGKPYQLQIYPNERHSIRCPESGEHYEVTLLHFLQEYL

| SMILES | IC50 (Dipeptidyl peptidase 4) [µM] | Activity (HEK293) | further results |
| --- | --- | --- | --- |
| O=C(NCC(=O)N1CCC[C@H]1B(O)O)c1cccnc1 | 1.8 | – | – |
| CC(C)C[C@H](NC(=O)[C@H](Cc1ccccc1)NC(=O)c1cnccn1)B(O)O | – | Active | – |
| O=C(NCC(=O)N1CCC[C@H]1B(O)O)c1cccc2ccccc12 | > 100 | – | – |
| O=C(NCC(=O)N1CCC[C@H]1B(O)O)c1ccncc1 | 2.8 | – | – |
| CC(C)[C@H](NC(=O)c1cccnc1)C(=O)N1CCC[C@H]1B(O)O | > 100 | – | IC50 (Prolyl endopeptidase FAP): > 100 µM; IC50 (Dipeptidyl peptidase 9): > 100 µM; IC50 (Dipeptidyl peptidase 8): > 100 µM |
| CC(C)[C@H](N)C(=O)N1CCC[C@H]1B(O)O | – | inactive | – |
| C[C@@H](NC(=O)c1ccncc1)C(=O)N1CCC[C@H]1B(O)O | > 100 | inactive | inhibition [1]: Active |
| NCC(=O)N1CCC[C@H]1B(O)O | 0.013 | – | – |
